{"source": "ChEMBL document CHEMBL1255356", "about": "“The efflux pump inhibitor reserpine selects multidrug-resistant Streptococcus pneumoniae strains that overexpress the ABC transporters PatA and PatB” (2008)", "key": {"Streptococcus pneumoniae [1]": {"system": "Streptococcus pneumoniae", "experiment": "Antibacterial activity against Streptococcus pneumoniae M169 by microdilution method", "format": "functional"}, "Streptococcus pneumoniae [2]": {"system": "Streptococcus pneumoniae", "experiment": "Antibacterial activity against Streptococcus pneumoniae M236 by microdilution method", "format": "functional"}, "Streptococcus pneumoniae [3]": {"system": "Streptococcus pneumoniae", "experiment": "Antibacterial activity against Streptococcus pneumoniae M184 by microdilution method", "format": "functional"}, "Streptococcus pneumoniae [4]": {"system": "Streptococcus pneumoniae", "experiment": "Antibacterial activity against Streptococcus pneumoniae M246 by microdilution method", "format": "functional"}, "Streptococcus pneumoniae [5]": {"system": "Streptococcus pneumoniae", "experiment": "Inhibition of ABC efflux pump in Streptococcus pneumoniae M186 assessed as reduction in ciprofloxacin MIC at 80 ug/ml"}, "Streptococcus pneumoniae [6]": {"system": "Streptococcus pneumoniae", "experiment": "Inhibition of ABC efflux pump in Streptococcus pneumoniae M184 assessed as increase in accumulation of ethidium bromide by fluorescence method after 10 mins relative to wild type", "design": "scale not given: the % may be the effect or the level left"}, "Streptococcus pneumoniae [7]": {"system": "Streptococcus pneumoniae", "experiment": "Antibacterial activity against Streptococcus pneumoniae M240 by microdilution method", "format": "functional"}, "Streptococcus pneumoniae [8]": {"system": "Streptococcus pneumoniae", "experiment": "Antibacterial activity against Streptococcus pneumoniae M186 by microdilution method", "format": "functional"}, "Streptococcus pneumoniae [9]": {"system": "Streptococcus pneumoniae", "experiment": "Antibacterial activity against Streptococcus pneumoniae M231 by microdilution method", "format": "functional"}, "Streptococcus pneumoniae [10]": {"system": "Streptococcus pneumoniae", "experiment": "Inhibition of ABC efflux pump in Streptococcus pneumoniae M186 assessed as increase in accumulation of ciprofloxacin by fluorometric uptake assay relative to wild type"}, "Streptococcus pneumoniae [11]": {"system": "Streptococcus pneumoniae", "experiment": "Inhibition of ABC efflux pump in Streptococcus pneumoniae M4 assessed as increase in accumulation of ciprofloxacin by fluorometric uptake assay relative to wild type"}, "Streptococcus pneumoniae [12]": {"system": "Streptococcus pneumoniae", "experiment": "Inhibition of ABC efflux pump in Streptococcus pneumoniae M168 assessed as increase in accumulation of ethidium bromide by fluorescence method after 10 mins relative to Streptococcus pneumoniae M4", "design": "scale not given: the % may be the effect or the level left"}, "Streptococcus pneumoniae [13]": {"system": "Streptococcus pneumoniae", "experiment": "Inhibition of ABC efflux pump in Streptococcus pneumoniae M184 assessed as increase in accumulation of ciprofloxacin by fluorometric uptake assay relative to wild type"}, "Streptococcus pneumoniae [14]": {"system": "Streptococcus pneumoniae", "experiment": "Antibacterial activity against Streptococcus pneumoniae M230 by microdilution method", "format": "functional"}, "Streptococcus pneumoniae [15]": {"system": "Streptococcus pneumoniae", "experiment": "Antibacterial activity against Streptococcus pneumoniae R6 by microdilution method", "format": "functional"}, "Streptococcus pneumoniae [16]": {"system": "Streptococcus pneumoniae", "experiment": "Inhibition of ABC efflux pump in Streptococcus pneumoniae M169 assessed as reduction in ciprofloxacin MIC at 80 ug/ml"}, "Streptococcus pneumoniae [17]": {"system": "Streptococcus pneumoniae", "experiment": "Antibacterial activity against Streptococcus pneumoniae M4 by microdilution method", "format": "functional"}, "Streptococcus pneumoniae [18]": {"system": "Streptococcus pneumoniae", "experiment": "Antibacterial activity against Streptococcus pneumoniae M233 by microdilution method", "format": "functional"}, "Streptococcus pneumoniae [19]": {"system": "Streptococcus pneumoniae", "experiment": "Antibacterial activity against Streptococcus pneumoniae M234 by microdilution method", "format": "functional"}, "Streptococcus pneumoniae [20]": {"system": "Streptococcus pneumoniae", "experiment": "Antibacterial activity against Streptococcus pneumoniae M168 by microdilution method", "format": "functional"}, "Streptococcus pneumoniae [21]": {"system": "Streptococcus pneumoniae", "experiment": "Inhibition of ABC efflux pump in Streptococcus pneumoniae M184 assessed as reduction in ciprofloxacin MIC at 80 ug/ml"}, "Streptococcus pneumoniae [22]": {"system": "Streptococcus pneumoniae", "experiment": "Inhibition of ABC efflux pump in Streptococcus pneumoniae M169 assessed as increase in accumulation of ciprofloxacin by fluorometric uptake assay relative to wild type"}, "Streptococcus pneumoniae [23]": {"system": "Streptococcus pneumoniae", "experiment": "Inhibition of ABC efflux pump in Streptococcus pneumoniae M169 assessed as increase in accumulation of ethidium bromide by fluorescence method after 10 mins relative to wild type", "design": "scale not given: the % may be the effect or the level left"}, "Streptococcus pneumoniae [24]": {"system": "Streptococcus pneumoniae", "experiment": "Inhibition of ABC efflux pump in Streptococcus pneumoniae M186 assessed as increase in accumulation of ethidium bromide by fluorescence method after 10 mins relative to wild type", "design": "scale not given: the % may be the effect or the level left"}, "Streptococcus pneumoniae [25]": {"system": "Streptococcus pneumoniae", "experiment": "Inhibition of ABC efflux pump in Streptococcus pneumoniae M168 assessed as increase in accumulation of ciprofloxacin by fluorometric uptake assay relative to sStreptococcus pneumoniae M4"}, "Streptococcus pneumoniae [26]": {"system": "Streptococcus pneumoniae", "experiment": "Antibacterial activity against Streptococcus pneumoniae M235 by microdilution method", "format": "functional"}}}
{"smiles": "COC(=O)[C@H]1[C@H]2C[C@@H]3c4[nH]c5cc(OC)ccc5c4CCN3C[C@H]2C[C@@H](OC(=O)c2cc(OC)c(OC)c(OC)c2)[C@@H]1OC", "note": "[RESERPINE]", "values": [{"measurement": "MIC", "setting": "Streptococcus pneumoniae [1]", "result": 256, "unit": "µg/mL"}, {"measurement": "MIC", "setting": "Streptococcus pneumoniae [2]", "result": 64, "unit": "µg/mL"}, {"measurement": "MIC", "setting": "Streptococcus pneumoniae [3]", "result": 256, "unit": "µg/mL"}, {"measurement": "MIC", "setting": "Streptococcus pneumoniae [4]", "result": 64, "unit": "µg/mL"}, {"measurement": "Activity", "setting": "Streptococcus pneumoniae [5]", "result": 1, "unit": "µg/mL"}, {"measurement": "Activity", "setting": "Streptococcus pneumoniae [6]", "result": 26.7, "unit": "%"}, {"measurement": "MIC", "setting": "Streptococcus pneumoniae [7]", "result": 64, "unit": "µg/mL"}, {"measurement": "MIC", "setting": "Streptococcus pneumoniae [8]", "result": 256, "unit": "µg/mL"}, {"measurement": "MIC", "setting": "Streptococcus pneumoniae [9]", "result": 64, "unit": "µg/mL"}, {"measurement": "fold change (FC)", "setting": "Streptococcus pneumoniae [10]", "result": 2.1}, {"measurement": "fold change (FC)", "setting": "Streptococcus pneumoniae [11]", "result": 1.6}, {"measurement": "Activity", "setting": "Streptococcus pneumoniae [12]", "result": 27.7, "unit": "%"}, {"measurement": "fold change (FC)", "setting": "Streptococcus pneumoniae [13]", "result": 2.8}, {"measurement": "MIC", "setting": "Streptococcus pneumoniae [14]", "result": 256, "unit": "µg/mL"}, {"measurement": "MIC", "setting": "Streptococcus pneumoniae [15]", "result": 64, "unit": "µg/mL"}, {"measurement": "Activity", "setting": "Streptococcus pneumoniae [16]", "result": 1, "unit": "µg/mL"}, {"measurement": "MIC", "setting": "Streptococcus pneumoniae [17]", "result": 64, "unit": "µg/mL"}, {"measurement": "MIC", "setting": "Streptococcus pneumoniae [18]", "result": 256, "unit": "µg/mL"}, {"measurement": "MIC", "setting": "Streptococcus pneumoniae [19]", "result": 64, "unit": "µg/mL"}, {"measurement": "MIC", "setting": "Streptococcus pneumoniae [20]", "result": 256, "unit": "µg/mL"}, {"measurement": "Activity", "setting": "Streptococcus pneumoniae [21]", "result": 1, "unit": "µg/mL"}, {"measurement": "fold change (FC)", "setting": "Streptococcus pneumoniae [22]", "result": 2.9}, {"measurement": "Activity", "setting": "Streptococcus pneumoniae [23]", "result": 24.6, "unit": "%"}, {"measurement": "Activity", "setting": "Streptococcus pneumoniae [24]", "result": 32.9, "unit": "%"}, {"measurement": "fold change (FC)", "setting": "Streptococcus pneumoniae [25]", "result": 2.3}, {"measurement": "MIC", "setting": "Streptococcus pneumoniae [26]", "result": 256, "unit": "µg/mL"}]}
